Laboratory results as given in patent US12174192B2, “Methods for detecting and treating cancers having adenosine pathway activation” (Corvus Pharmaceuticals, Inc., priority 2018, dated 2024).
Entries after “also recorded” stand apart in the source; their conditions may differ.

Tests used:
A2AR = assay: In vitro A2AR stimulation gene signature and its inhibition by CPI-444; format: cell-based, human; details: transcript and protein level
Description: RNA purified from normal, healthy human peripheral blood mononuclear cells (PBMCs) treated with 5′-N-ethylcarboxamidoadenosine (NECA) and activated with anti-CD3/CD28 antibody were analyzed by NanoString hybridization-based quantification (NanoString Technologies, Inc.). […] Each dot represents the expression level of a specific gene. Dot shade represents the concentration of NECA used and/or different PBMC donors. […] Increases in monocyte/macrophage inflammatory mediators such as IL-1b and CCL2,3,7,8, 20 were also observed, as were increases in SERPINB2, S100A8, PTGS2, THBS1. Expression of CXCL10 and GZMB were decreased, consistent with a suppressed IFNg response. […] A2AR agonists induce a specific gene signature (increase in a certain subset of genes and/or decrease in a second subset of genes) dominated by immunosuppressive mediators of MDSC and monocyte/macrophage biology. Inhibition of these genes by CPI-444 are observed. These gene signatures may be used as biomarkers for patient selection.

advanced cancers = assay: Ongoing phase 1/1b trial of CPI-444 monotherapy in patients with advanced cancers; format: in vivo, human
From the text: “Adenosine receptor antagonist” refers to a molecule that inhibits activity of adenosine receptors (e.g. A2A or A2B receptors), typically through direct action. Adenosine receptors antagonists can be small or large molecule antagonists. In embodiments, CPI-444 is an example A2A receptor antagonist. […] CPI-444 is described, for example, in PCT Patent Publication No. WO 2017/112917; each of which is incorporated herein by reference in its entirety.

[1] = test system: adenosine-modulated genes and proteins; assay: Adenosine-induced genes and proteins in tumor biopsies from treated patients; parameters: species or system human; details: in vitro and in vivo in tumor biopsies from treated patients
From the text: Expression of a subset of genes that are modulated by adenosine levels correlates with tumor regression in the ongoing Ph 1/1b trial with CPI-444 treatment in RCC. […] A2AR agonists induce a specific gene signature dominated by immunosuppressive mediators of MDSC and monocyte/macrophage biology. […] These genes and proteins may identify patients with high levels of adenosine and be used as biomarkers for patient selection to select patients most likely to respond to therapy with agents that antagonize adenosine production or signaling.

renal tumors (RCC) = assay: Change in tumor size in renal cancer patients treated with CPI-444 (Ph 1/1b trial); format: in vivo, human
Description: Methods: Tumor biopsies obtained at trial screening from patients with RCC (n=30) were analyzed for gene expression profiles with the Nanostring PanCancer Immune Panel that included 770 markers of immune activity and inflammation. The gene expression correlation (Spearman) matrix was hierarchically clustered (Ward's method) to identify modules of genes that were co-expressed across tumors. Gene expression was normalized to housekeeper genes included in the PanCancer Immune Panel. Gene cluster expression intensity was compared between patients with evaluable best change in tumor size ≤0 (n=8) vs >0 (n=15). The composite gene expression score was calculated as the average of the Log2 of expression values (normalized Nanostring counts) for seven genes (CXCL1, CXCL2, CXCL3, CXCL5, IL1B, IL8, SERPINB2) shown to be induced in vitro in normal peripheral blood mononuclear cells by adenosine. Protein expression was determined from blood (plasma) samples from baseline (untreated) renal cell carcinoma (RCC) patients using MesoScale assay.
Renal cancer patients were treated with CPI-444, and change in tumor size was measured.

PBMCs = assay: CXCL5 protein ELISA in culture supernatants of PBMCs treated with NECA +/- CPI-444; format: cell-based; details: PBMCs from two human donors; NECA then CPI-444 then anti-CD3/CD28; two days after activation
Description: Expression of CXCL5 was determined by ELISA 2 days after activation.
FIGS. 2B and 2C show the response of PBMCs from two different donors to NECA+/−CPI-444 treatment. DMSO was used as vehicle control. […] This control helps establish that the induction of CXCL5 is specific to signaling through adenosine receptors.
NECA activation of CXCL5 protein expression was evaluated. PBMCs were harvested from two different human donors. […] CPI-444 (Corvus Pharmaceuticals) is an antagonist of the adenosine A2A receptor. CXCL5 protein in the culture supernatants was evaluated by ELISA two days after activation. CXCL5 expression is activated by NECA. […] This establishes that the induction of CXCL5 is specific to signaling through adenosine receptors.

IL6 and IL8 = assay: Plasma IL6 and IL8 protein levels in RCC patients after CPI-444 treatment; format: in vivo, human; details: RCC patients with reduction in tumor size (best response); after treatment (4 weeks)

Cc1ccc(-c2nc(N)nc3c2nnn3Cc2cccc(CO[C@H]3CCOC3)n2)o1 [CPI-444, (S)-7-(5-methylfuran-2-yl)-3-((6-(((tetrahydrofuran-3-yl)oxy)methyl)pyridin-2-yl)methyl)-3H-[1,2,3]triazolo[4,5-d]pyrimidin-5-amine]
A2AR stimulation-induced gene expression changes, effect of CPI-444 (A2AR): inhibited these changes | anti-tumor activity as a monotherapy (advanced cancers): demonstrated anti-tumor activity | adenosine agonist-induced genes and proteins, effect of CPI-444 [1]: Inhibition of these genes and proteins | response to CPI-444 monotherapy, patients with high CD68 or high CD163 gene levels in the tumors (renal tumors (RCC); RCC patients, vs low levels of CD68 or CD163): more likely to respond | tumor regression with CPI-444, patients with high expression of adenosine-modulated gene subset (renal tumors (RCC); ongoing Ph 1/1b trial, RCC, vs patients with low expression): more likely to have tumor regression | reduction in tumor size (best overall change) after CPI-444 treatment (renal tumors (RCC); patients with RCC, two subjects): greater than 30% | change in tumor size after CPI-444 treatment, tumors with low composite gene expression score (renal tumors (RCC); renal cancer patients): tumor regression was not observed | response to CPI-444, patients with high CCL20 and low CX3CL1 plasma protein levels (renal tumors (RCC); renal cancer patients): more likely to respond | change in tumor size after CPI-444 treatment, tumors with high composite gene expression score (renal tumors (RCC); renal cancer patients, four patients): reduction in tumor size | NECA-induced increase in CXCL5 protein (ELISA), effect of added CPI-444 (PBMCs): blocked | IL6 and IL8 levels in blood plasma after treatment (IL6 and IL8): reduced; also recorded: decreased
